Results on 17 molecules are retold here after ChEMBL document CHEMBL4834458, “Diterpenoids with Aromatase Inhibitory Activity from the Rhizomes of Kaempferia elegans” (J Nat Prod, 2021).

Data set [1] addresses T1, Aromatase (Homo sapiens, UniProt P11511).
T1 sequence (P11511 whole entry): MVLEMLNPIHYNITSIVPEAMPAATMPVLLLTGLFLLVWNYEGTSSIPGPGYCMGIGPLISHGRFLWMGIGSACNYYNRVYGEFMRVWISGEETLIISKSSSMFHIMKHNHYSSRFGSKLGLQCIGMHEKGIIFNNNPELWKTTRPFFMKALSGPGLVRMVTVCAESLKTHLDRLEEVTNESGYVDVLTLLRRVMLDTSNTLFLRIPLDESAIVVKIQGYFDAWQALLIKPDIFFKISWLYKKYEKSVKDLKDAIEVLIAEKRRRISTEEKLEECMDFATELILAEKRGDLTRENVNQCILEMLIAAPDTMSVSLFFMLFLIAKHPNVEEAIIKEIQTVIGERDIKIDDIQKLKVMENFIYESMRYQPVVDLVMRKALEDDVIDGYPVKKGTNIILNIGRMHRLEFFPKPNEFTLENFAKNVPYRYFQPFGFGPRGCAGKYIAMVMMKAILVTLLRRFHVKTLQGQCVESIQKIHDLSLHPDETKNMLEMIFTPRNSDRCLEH
The data set can be described thus: Inhibition of aromatase (unknown origin) at 12.5 uM relative to control.

The target of data set [2] is T1, Aromatase. The data set can be described thus: Inhibition of aromatase (unknown origin).
For the next data set, the system named is HeLa. The data set can be described thus: Cytotoxicity against human HeLa cells assessed as reduction in cell viability incubated for 48 hrs by MTT assay. The format is functional, cell-based.
For another data set, the system named is HepG2. The data set can be described thus: Cytotoxicity against human HepG2 cells assessed as reduction in cell viability incubated for 48 hrs by MTT assay. In kind it is functional, cell-based. The note with it: HepG2, 48 h. (In general: Tetrazolium assays rely on reduction of a dye to a coloured formazan, in cell work by metabolically active cells.)
The next data set deals with K562. The data set can be described thus: Cytotoxicity against human K562 cells assessed as reduction in cell viability incubated for 48 hrs by MTT assay. In kind it is functional, cell-based. Particulars: K562, 48 h.
Data set [3] in a line: Cytotoxicity against human NCI-H69AR cells assessed as reduction in cell viability incubated for 48 hrs by MTT assay. The format is functional, cell-based.
A further data set has as its system A549. The data set can be described thus: Cytotoxicity against human A549 cells assessed as reduction in cell viability incubated for 48 hrs by MTT assay. The format is functional, cell-based. The note with it: A549, 48 h.
A further data set has as its system MDA-MB-231. The data set can be described thus: Cytotoxicity against human MDA-MB-231 cells assessed as reduction in cell viability incubated for 48 hrs by MTT assay. The format is functional, cell-based. Particulars: MDA-MB-231, 48 h.
The next data set has as its system T47D. The data set can be described thus: Cytotoxicity against human T47D cells assessed as reduction in cell viability incubated for 48 hrs by MTT assay. The format is functional, cell-based.
Another data set has as its system HuCCT-1. The data set can be described thus: Cytotoxicity against human HuCC-A1 cells assessed as reduction in cell viability incubated for 48 hrs by MTT assay. In kind it is functional, cell-based. Particulars: HuCCT-1, 48 h.
The test system of another data set is MRC5. The data set can be described thus: Cytotoxicity against human MRC5 cells assessed as reduction in cell viability incubated for 48 hrs by MTT assay. Particulars: MRC5, 48 h. In kind it is cell-based.

By inhibition is commonly meant the drop in the measured response relative to a control, in per cent. High values mean strong suppression, low ones little suppression. Consider `CC(C)c1ccc2c(c1)CC[C@H]1C(C)(C)CCC[C@]21C`, for which, at Aromatase [1], the inhibition at 12.5 µM came to 44%.

On to `CC(C)C1=CC(=O)C2=C(CC[C@H]3C(C)(C)CCC[C@]23C)C1=O`, for which, on Aromatase [1], 12.5 µM produced 42% inhibition.

Take `C=C[C@]1(C)C=C2[C@H](O)C[C@H]3C(C)(C)CCC[C@]3(C)[C@H]2CC1`: the inhibition at 12.5 µM at Aromatase [1] was found to be 31%.

`CC(C)c1ccc2c(c1)[C@H](O)C[C@H]1C(C)(C)CCC[C@]21C` had an inhibition at 12.5 µM on Aromatase [1] of 30%.

Broadly, the IC50 is the point on the concentration scale where inhibition reaches its midpoint. Take `CC(C)c1cc(O)c2c(c1)CC[C@H]1C(C)(C)CCC[C@]21C`: the IC50 came to 3.7 µM at Aromatase [2]; 27.2 µM in the data set with HeLa; 27.2 µM with HepG2; 27.2 µM in the data set with K562; 27.2 µM in [3]; 27.2 µM in the data set on A549. Moreover, the IC50 in the data set with MDA-MB-231 turned out to be 27.2 µM; in the data set on T47D, 129 µM; in the data set on HuCCT-1, 27.2 µM; in the data set with MRC5, 82.1 µM.

In the case of `CC(C)[C@]1(O)C=C2[C@H](O)C[C@H]3C(C)(C)CCC[C@]3(C)[C@H]2C[C@H]1O`, on Aromatase [1], the inhibition at 12.5 µM was found to be 21%.

Molecule `CC(C)[C@@]1(O)CC[C@H]2C(CC[C@H]3C(C)(C)CCC[C@]23C)[C@H]1O` (stereo partly specified) registered an inhibition at 12.5 µM against Aromatase [1] of 16%.

For the molecule `C[C@@H]1O[C@]2(C(C)(C)O)C=C3CC[C@H]4C(C)(C)CCC[C@]4(C)[C@@]31OO2`, at Aromatase [2], it took 10.7 µM to reach half-maximal inhibition (IC50).

Take `CC(C)C1=CC2=CC[C@H]3C(C)(C)CCC[C@]3(C)[C@H]2[C@H](O)C1`: at Aromatase [1], the inhibition at 12.5 µM came to 36%.

On Aromatase [2], `C=C[C@]1(C)C=C2CC[C@H]3C(C)(C)CCC[C@]3(C)[C@H]2CC1` showed an IC50 of 10.4 µM.

In the case of `C[C@H]1C[C@]2(O)O[C@@]1(C)C=C1CC[C@H]3C(C)(C)CCC[C@]3(C)[C@H]12`, inhibition against Aromatase [2] was half-maximal at 11.8 µM (IC50).

The molecule `CC(C)[C@@]12CC3=C([C@@H](CO1)O2)[C@@]1(C)CCCC(C)(C)[C@@H]1CC3` yielded an inhibition at 12.5 µM against Aromatase [1] of 26%.

For the molecule `C[C@@H]1OC(=O)C=C2[C@H](O)C[C@H]3C(C)(C)CCC[C@]3(C)[C@H]21`, at 12.5 µM the inhibition against Aromatase [1] was 14%.

In turn, `C[C@@H]1OC(=O)C=C2[C@H](O)C[C@H]3C(C)(C)CCC[C@]3(C)[C@]21O` showed an inhibition at 12.5 µM against Aromatase [1] of 25%.

For `C=C[C@@]1(C)CC(=O)C2=C(CC[C@H]3C(C)(C)CCC[C@]23C)C1`, the IC50 against Aromatase [2] was 7.9 µM.

`CC(C)c1cc(O)c2c(c1)[C@H](O)C[C@H]1C(C)(C)CCC[C@]21C` yielded an IC50 against Aromatase [2] of 7.2 µM.

As for `CC(C)[C@@]1(O)CC[C@H]2C(CC[C@H]3C(C)(C)CCC[C@]23C)[C@@H]1O` (stereo partly specified), the inhibition at 12.5 µM against Aromatase [1] turned out to be 15%.
